This passage reports caspase activation and AC10 results from PubChem BioAssay AID504343 (Broad Institute, 2011).

Records with an inconclusive call do not appear. Activity calls are given as the source filed them.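 How the source made its calls: active means fitted curve reaches 10% of positive control caspase signal at or below top valid tested dose; inconclusive means flat fit at 30 to 70% activity, or unreliable fit; inactive means the rest.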

Test system in the first experiment: not listed separately
The experiment is described as follows: apoptosis induction in HMC1-8 cells – cell-based, caspase luminescence, dry powder, set 2, selectivity assay for Bcl2-A1 inhibitor project, dose response (AID 504343). The following applies: HMC1-8 Mcl1-dependent cells, caspase-Glo luminescence, 4 h; at 35 µM (top of the series).
For `Cc1ccc(Nc2c([N+](=O)[O-])c(=O)oc3ccccc23)cc1`, the caspase activation is 12.1% (inactive).

As for `CN1C(=O)C(C)(C)N(Cc2ccccc2)c2ccccc21`, the caspase activation is 9.6% (inactive).

Consider `Cn1c(=O)c([N+](=O)[O-])c(Cl)c2ccccc21`, for which the caspase activation is -12.8% (inactive).

Turning to `Cc1ccc(Sc2c([N+](=O)[O-])c(=O)n(C)c3ccccc23)cc1`, the caspase activation was 0.553% (inactive).

Consider `Cn1c(=O)c([N+](=O)[O-])c(Oc2ccccc2)c2ccccc21`, for which the caspase activation is 2.58% (inactive).

For the compound `Cn1c(=O)c([N+](=O)[O-])c(Nc2ccc(Cl)cc2)c2ccccc21`, the caspase activation is 1.67% (inactive).

For `Cc1ccc(Nc2c([N+](=O)[O-])c(=O)n(C)c3ccccc23)cc1`, the caspase activation is 10.1% (inactive).

As for `CCOCCCNc1c([N+](=O)[O-])c(=O)n(C)c2ccccc12`, the caspase activation was -2.94% (inactive).

Another experiment has as its system HMC1-8 Mcl1-dependent cells, caspase-Glo luminescence, 4 h. Described as above.
Conditions: not given
With `O=[N+]([O-])c1cnc2ccccc2c1Sc1ccccc1`, the AC10 was 25 µM.

For the compound `C/C1=C/C(=O)O[C@@H]2C[C@@H](CC[C@H](C)/C=C\CC1)O[C@@](O)(C1CSC(=O)N1)C2` (some centres not stated), the AC10 is > 35 µM (inactive).

For `Cc1ccc(Sc2c([N+](=O)[O-])cnc3ccccc23)cc1`, the AC10 is 25 µM.

On to `Cn1c(=O)c([N+](=O)[O-])c(-n2cnc3ccccc32)c2ccccc21`, for which the AC10 was 20 µM.
